Measurements taken from paper PMC10247784, “Physiological activation of human and mouse bitter taste receptors by bile acids” (Communications Biology, 2023).

Tested on: HEK293T-Gα16gust44 cells transfected with empty vector (mock)
Test: Calcium imaging assay (FLIPR), empty vector control (mock)
Format: cell-based
How it was run: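 Read-out is Fluo-4 fluorescence change (ΔF/F) after automated application of bile acids (DMSO stocks) to transiently transfected cells. Values are corrected for empty-vector cells and normalized to buffer. Dose-response from three independent experiments in duplicate; threshold concentration set at p < 0.01 versus mock.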

**Q.** With `C[C@H](CCC(=O)O)[C@H]1CC[C@H]2[C@@H]3CC[C@@H]4C[C@H](O)CC[C@]4(C)[C@H]3C[C@H](O)[C@]12C` [Deoxycholic Acid, deoxycholic acid] as the molecule, how does the “Δ F/F” value (Mock (sheet Tas2r123), conc. 0,01 mM) read?
**A.** The value was -0.0008829.

**Q.** And the “Δ F/F” value (Mock (sheet Tas2r123), conc. 0,03 mM)?
**A.** Its value is -0.0003165.

**Q.** And the “Δ F/F” value (Mock (sheet Tas2r123), conc. 0,0001 mM)?
**A.** The value was 0.00132.

**Q.** And the “Δ F/F” value (Mock (sheet Tas2r123), conc. 0,0003 mM)?
**A.** The value was -0.002173.

**Q.** And the “Δ F/F” value (Mock (sheet Tas2r123), conc. 0,001 mM)?
**A.** Its value is -0.000706.

**Q.** What about the “Δ F/F” value (Mock (sheet Tas2r123), conc. 0,003 mM) of the same molecule?
**A.** The value was -0.0005125.

**Q.** And the “Δ F/F” value (Mock, sheet TAS2R4, conc. 0,01 mM)?
**A.** The value was 0.0004181.

**Q.** What about the “Δ F/F” value (Mock, sheet TAS2R4, conc. 0,03 mM) of the same molecule?
**A.** Its value is 0.001864.

**Q.** What about the “Δ F/F” value (Mock, sheet TAS2R4, conc. 0,0003 mM) of the same molecule?
**A.** Its value is 0.0005365.

**Q.** What about the “Δ F/F” value (Mock, sheet TAS2R4, conc. 0,001 mM) of the same molecule?
**A.** The value was 0.0001116.

**Q.** What about the “Δ F/F” value (Mock, sheet TAS2R4, conc. 0,003 mM) of the same molecule?
**A.** The value was 0.0001746.

**Q.** What about the “Δ F/F” value (Mock, sheet Tas2r105, conc. 0,01 mM) of the same molecule?
**A.** Its value is -0.01259.

**Q.** What about the “Δ F/F” value (Mock, sheet Tas2r105, conc. 0,03 mM) of the same molecule?
**A.** Its value is -0.004122.

**Q.** What about the “Δ F/F” value (Mock, sheet Tas2r105, conc. 0,00003 mM) of the same molecule?
**A.** Its value is -0.01446.

**Q.** What about the “Δ F/F” value (Mock, sheet Tas2r105, conc. 0,0001 mM) of the same molecule?
**A.** Its value is -0.0178.

**Q.** What about the “Δ F/F” value (Mock, sheet Tas2r105, conc. 0,0003 mM) of the same molecule?
**A.** The value was -0.01787.

**Q.** What about the “Δ F/F” value (Mock, sheet Tas2r105, conc. 0,001 mM) of the same molecule?
**A.** Its value is -0.0148.

**Q.** And the “Δ F/F” value (Mock, sheet Tas2r105, conc. 0,003 mM)?
**A.** Its value is -0.01449.

**Q.** What about the “Δ F/F” value (Mock, sheet Tas2r108, conc. 0,01 mM) of the same molecule?
**A.** Its value is -0.006813.

**Q.** And the “Δ F/F” value (Mock, sheet Tas2r108, conc. 0,03 mM)?
**A.** Its value is -0.0003425.

**Q.** What about the “Δ F/F” value (Mock, sheet Tas2r108, conc. 0,00003 mM) of the same molecule?
**A.** The value was -0.01113.

**Q.** What about the “Δ F/F” value (Mock, sheet Tas2r108, conc. 0,0001 mM) of the same molecule?
**A.** The value was -0.01772.

**Q.** And the “Δ F/F” value (Mock, sheet Tas2r108, conc. 0,0003 mM)?
**A.** Its value is -0.01462.

**Q.** What about the “Δ F/F” value (Mock, sheet Tas2r108, conc. 0,001 mM) of the same molecule?
**A.** The value was -0.01703.

**Q.** And the “Δ F/F” value (Mock, sheet Tas2r108, conc. 0,003 mM)?
**A.** Its value is -0.01481.

**Q.** And the “Δ F/F” value (conc. 0,01 mM, Mock (sheet TAS2R1))?
**A.** Its value is -0.0008034.

**Q.** What about the “Δ F/F” value (conc. 0,03 mM, Mock (sheet TAS2R1)) of the same molecule?
**A.** Its value is -0.0003771.

**Q.** And the “Δ F/F” value (conc. 0,0003 mM, Mock (sheet TAS2R1))?
**A.** Its value is -0.002238.

**Q.** What about the “Δ F/F” value (conc. 0,001 mM, Mock (sheet TAS2R1)) of the same molecule?
**A.** Its value is -0.001593.

**Q.** And the “Δ F/F” value (conc. 0,003 mM, Mock (sheet TAS2R1))?
**A.** The value was -0.0004081.
